Assay results taken from PubChem BioAssay (NCI).
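Results reflect a 48-hour exposure of cells in 96-well plates to compound at five concentrations. Definition used: TGI = concentration required for complete inhibition of growth.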

Legend:
Test in all cases: NCI-60 cell line screen, 48 h
[1] = system: NCI-H460 lung
[2] = system: OVCAR-4 ovarian
[3] = system: HCT-15 colon
[4] = system: KM12 colon
[5] = system: UACC-62 melanoma
[6] = system: BT-549 breast
[7] = system: K-562 leukemia
[8] = system: RXF 393 renal
[9] = system: HL-60(TB) leukemia
[10] = system: NCI-H522 lung
[11] = system: SK-MEL-2 melanoma
[12] = system: DU-145 prostate
[13] = system: MCF7 breast
[14] = system: M14 melanoma
[15] = system: OVCAR-8 ovarian
[16] = system: A549 NSCLC
[17] = system: SF-539 CNS
[18] = system: SW-620 colon
[19] = system: NCI/ADR-RES ovarian
[20] = system: RPMI-8226 leukemia
[21] = system: SNB-19 CNS
[22] = system: OVCAR-3 ovarian
[23] = system: LOX IMVI melanoma
[24] = system: HOP-92 NSCLC
[25] = system: T-47D breast
[26] = system: MDA-MB-435
[27] = system: PC-3 prostate
[28] = system: SK-MEL-5 melanoma
[29] = system: SNB-75 CNS
[30] = system: MALME-3M melanoma
[31] = system: CAKI-1 renal
[32] = system: MDA-N
[33] = system: COLO 205 colon
[34] = system: TK-10 renal
[35] = system: SR leukemia
[36] = system: IGROV1 ovarian
[37] = system: HCC-2998 colon
[38] = system: HT29 colon
[39] = system: MDA-MB-231 breast
[40] = system: SK-MEL-28 melanoma
[41] = system: OVCAR-5 ovarian
[42] = system: HOP-62 NSCLC
[43] = system: UACC-257 melanoma
[44] = system: 786-0 renal
[45] = system: NCI-H23 lung
[46] = system: A498 renal
[47] = system: UO-31 renal
[48] = system: U251 CNS
[49] = system: ACHN renal
[50] = system: SF-268 CNS
[51] = system: HCT-116 colon
[52] = system: SF-295 CNS
[53] = system: EKVX NSCLC
[54] = system: CCRF-CEM leukemia
[55] = system: HS 578T breast
[56] = system: MOLT-4 leukemia
[57] = system: SN12C renal
[58] = system: SK-OV-3 ovarian

## CC1=NN(C(=O)CC(=O)Nc2ccccc2)C(=O)C1N=Nc1ccc(C(=O)O)cc1 (centres undefined)
[1]
  TGI: > 100 µM
[2]
  TGI: > 100 µM
[3]
  TGI: > 100 µM
[4]
  TGI: > 100 µM
[5]
  TGI: > 100 µM
[6]
  TGI: > 100 µM
[7]
  TGI: > 100 µM
[8]
  TGI: > 100 µM
[9]
  TGI: > 100 µM
[10]
  TGI: > 100 µM
[11]
  TGI: > 100 µM
[12]
  TGI: > 100 µM
[13]
  TGI: > 100 µM
[14]
  TGI: > 100 µM
[15]
  TGI: > 100 µM
[16]
  TGI: > 100 µM
[17]
  TGI: > 100 µM
[18]
  TGI: > 100 µM
[19]
  TGI: > 100 µM
[20]
  TGI: > 100 µM
[21]
  TGI: > 100 µM
[22]
  TGI: > 100 µM
[23]
  TGI: > 100 µM
[24]
  TGI: 87.1 µM
[25]
  TGI: > 100 µM
[26]
  TGI: > 100 µM
[27]
  TGI: > 100 µM
[28]
  TGI: > 100 µM
[29]
  TGI: > 100 µM
[30]
  TGI: > 100 µM
[31]
  TGI: > 100 µM
[32]
  TGI: > 100 µM
[33]
  TGI: > 100 µM
[34]
  TGI: > 100 µM
[35]
  TGI: > 100 µM
[36]
  TGI: > 100 µM
[37]
  TGI: > 100 µM
[38]
  TGI: > 100 µM
[39]
  TGI: > 100 µM
[40]
  TGI: > 100 µM
[41]
  TGI: > 100 µM
[42]
  TGI: > 100 µM
[43]
  TGI: > 100 µM
[44]
  TGI: > 100 µM
[45]
  TGI: > 100 µM
[46]
  TGI: > 100 µM
[47]
  TGI: > 100 µM
[48]
  TGI: > 100 µM
[49]
  TGI: > 100 µM
[50]
  TGI: > 100 µM
[51]
  TGI: > 100 µM
[52]
  TGI: > 100 µM
[53]
  TGI: > 100 µM
[54]
  TGI: > 100 µM
[55]
  TGI: > 100 µM
[56]
  TGI: > 100 µM
[57]
  TGI: > 100 µM

## O=C1O/C(=C\c2ccc(O)c(Br)c2)C(c2ccc(O)c(Cl)c2)=C1Br
[1]
  TGI: 48.4 µM
[2]
  TGI: 25.8 µM
[3]
  TGI: 25.3 µM
[4]
  TGI: 31.2 µM
[5]
  TGI: 31.6 µM
[6]
  TGI: 63.1 µM
[7]
  TGI: 58.5 µM
[8]
  TGI: 40.9 µM
[9]
  TGI: > 100 µM
[10]
  TGI: 28.6 µM
[11]
  TGI: 39.2 µM
[12]
  TGI: 43 µM
[13]
  TGI: 34.6 µM
[14]
  TGI: 36.5 µM
[15]
  TGI: 90 µM
[16]
  TGI: > 100 µM
[17]
  TGI: 44 µM
[18]
  TGI: 34.1 µM
[19]
  TGI: 75.7 µM
[20]
  TGI: 38.6 µM
[21]
  TGI: 66.5 µM
[22]
  TGI: 33.7 µM
[23]
  TGI: 71.9 µM
[24]
  TGI: 35.7 µM
[25]
  TGI: 47 µM
[26]
  TGI: 46.5 µM
[27]
  TGI: 32.7 µM
[28]
  TGI: 29.8 µM
[30]
  TGI: 37.3 µM
[31]
  TGI: 75.2 µM
[32]
  TGI: 64.9 µM
[33]
  TGI: 32 µM
[34]
  TGI: 48.3 µM
[35]
  TGI: 28.1 µM
[36]
  TGI: 47.2 µM
[37]
  TGI: 16.7 µM
[38]
  TGI: 25.5 µM
[39]
  TGI: > 100 µM
[40]
  TGI: 32 µM
[41]
  TGI: 33.4 µM
[42]
  TGI: 40.9 µM
[58]
  TGI: 40.9 µM
[43]
  TGI: 33.3 µM
[44]
  TGI: 40.2 µM
[45]
  TGI: 54.1 µM
[46]
  TGI: 37.3 µM
[47]
  TGI: 77.4 µM
[48]
  TGI: 29.8 µM
[49]
  TGI: 33.2 µM
[50]
  TGI: 33.7 µM
[51]
  TGI: 26.5 µM
[52]
  TGI: 30.4 µM
[53]
  TGI: 49.3 µM
[54]
  TGI: 51.1 µM
[55]
  TGI: 70.9 µM
[56]
  TGI: > 100 µM
[57]
  TGI: 86.4 µM
